The values that follow come from PMC10882696, “Novel 5-Substituted Oxindole Derivatives as Bruton’s Tyrosine Kinase Inhibitors: Design, Synthesis, Docking, Molecular Dynamics Simulation, and Biological Evaluation” (ACS Omega, 2024).

The subject of data set [1] is A549. Nature of the data set: 3 day MTS cytotoxicity assay, A549. Type of data set: cell-based. To be noted: Homo sapiens; A549, ITK/BTK-negative; mean ± SD, n ≥ 6. The protocol: (§1) The cytotoxic activity of all the 10 compounds was tested under in vitro conditions using a 3 day standard 3-(4,5-dimethylthiazol-2yl)-5-(3-carboxymethoxyphenyl)-2-(4-sulfophenyl)-2H-tetrazolium reduction assay in 384-well plates on a robotic high-throughput screening platform (HighResBio, Boston, MA) as described elsewhere.[38] The IC50 values were calculated from the respective dose–response curves of compounds with Dotmatics (San Diego, CA, USA).
On the technique in general: Formazan colour is commonly taken as a measure of viable cells.

Data set [2] relates to U2OS. The experiment in a line: 3 day MTS cytotoxicity assay, U2OS. It is filed as cell-based. The conditions noted are these: Homo sapiens, ITK/BTK-negative, mean ± SD, n ≥ 6. How it is done:
as §1

Data set [3] relates to MRC-5. The experiment in a line: 3 day MTS cytotoxicity assay, MRC-5. The conditions noted are these: Homo sapiens, MRC5; MRC-5, non-cancer fibroblasts; mean ± SD, n ≥ 6. It is filed as cell-based. The protocol: as §1
Data set [4] deals with RAMOS. Nature of the data set: 3 day MTS cytotoxicity assay, RAMOS. Type of data set: cell-based, human. The conditions noted are these: for activity in RAMOS cells: BTK-high; for IC50: Homo sapiens, Ramos, BTK-positive, mean ± SD, n ≥ 6. How it is done:
as §1

In data set [5] the test system is JURKAT. Nature of the data set: 3 day MTS cytotoxicity assay, JURKAT. It is filed as cell-based. The conditions noted are these: Homo sapiens, ITK-positive, mean ± SD, n ≥ 6. How it is done:
as §1

Data set [6] has as its system BJ. Nature of the data set: 3 day MTS cytotoxicity assay, BJ. It is filed as cell-based. The conditions noted are these: Homo sapiens, non-cancer fibroblasts, mean ± SD, n ≥ 6. How it is done:
as §1

For data set [7], the system named is HCT116p53^–/–. The experiment in a line: 3 day MTS cytotoxicity assay, HCT116p53-/-. The conditions noted are these: ITK/BTK-negative, mean ± SD, n ≥ 6. It is filed as cell-based. How it is done: as §1
Data set [8] has as its system K562. The experiment in a line: 3 day MTS cytotoxicity assay, K562. Type of data set: cell-based. To be noted: Homo sapiens; K562, BTK-positive; mean ± SD, n ≥ 6. How it is done: as §1
Data set [9] concerns HCT116. Nature of the data set: 3 day MTS cytotoxicity assay, HCT116. It is filed as cell-based. The conditions noted are these: Homo sapiens, HCT-116; HCT116, ITK/BTK-negative; mean ± SD, n ≥ 6. How it is done:
as §1

Data set [10] relates to CCRF-CEM. The experiment in a line: 3 day MTS cytotoxicity assay, CCRF-CEM. To be noted: Homo sapiens, ITK-positive, mean ± SD, n ≥ 6. It is filed as cell-based. How it is done: as §1

Each structure is given as a SMILES string. Entries after “also recorded” stand apart in the source; their conditions may differ. Where a name gives a salt, the structure may show the parent alone. Where only a bound is given, the exact number is not on record here.

As for `O=C1Nc2ccc(S(=O)(=O)N3CCN(C(=O)C4CC4)CC3)cc2C1=C1CCCC1` (as salt: hydrochloride) [9c, 3-Cyclopentylidene-5-((4-(cyclopropanecarbonyl)piperazin-1-yl)sulfonyl)indolin-2-one], the melting point fell in the range of 136 to 142 °C.
`O=C1Nc2ccc(S(=O)(=O)N3CCN(C(=O)c4cccc(C(F)(F)F)c4)CC3)cc2C1=C1CCCC1` [9j, 3-Cyclopentylidene-5-((4-(3-(trifluoromethyl)benzoyl)piperazin-1-yl)sulfonyl)indolin-2-one]: the IC50 is greater than 50 µM in data set [1]; 23.6 ± 6.44 µM in data set [2]; 27.4 ± 6.8 µM in data set [3]; greater than 50 µM in data set [4]; greater than 50 µM in [5]; greater than 50 µM in [6]. Further, the IC50 in [7], in [8], in [9] and in data set [10] was greater than 50 µM in each case. Besides, the “activity in RAMOS cells” value in data set [4] is reported as “no activity”.
Turning to `O=C1Nc2ccc(S(=O)(=O)N3CCN(C(=O)c4cccc(Cl)c4)CC3)cc2C1=C1CCCC1` [9e, 5-((4-(3-Chlorobenzoyl)piperazin-1-yl)sulfonyl)-3-cyclopentylideneindolin-2-one], the IC50 in data set [1], in data set [2], in data set [3], in data set [4], in data set [5] and in [6] was greater than 50 µM in each case. For the same compound, the IC50 in data set [7], in data set [8], in data set [9] and in data set [10] was greater than 50 µM throughout. The “activity in RAMOS cells” value in data set [4] was “did not show any activity”.
For `O=C1Nc2ccc(S(=O)(=O)N3CCN(C(=O)c4ccccc4)CC3)cc2C1=C1CCCC1` (as salt: hydrochloride) [9d, 5-((4-Benzoylpiperazin-1-yl)sulfonyl)-3-cyclopentylideneindolin-2-one], the melting point was 135 to 140 °C.
For the compound `O=C1Nc2ccc(S(=O)(=O)N3CCN(C(=O)c4ccccc4)CC3)cc2C1=C1CCCC1` [9d, 5-((4-Benzoylpiperazin-1-yl)sulfonyl)-3-cyclopentylideneindolin-2-one], the IC50 in [1], in data set [2], in data set [3], in data set [4], in data set [5] and in data set [6] was greater than 50 µM throughout. The IC50 in data set [7], in data set [8], in data set [9] and in data set [10] was greater than 50 µM in each case. Further, in data set [4], the “activity in RAMOS cells” value is recorded as “did not show any activity”.
In turn, `CCCCC(=O)N1CCN(S(=O)(=O)c2ccc3c(c2)C(=C2CCCC2)C(=O)N3)CC1` (as salt: hydrochloride) [9h, 3-Cyclopentylidene-5-((4-pentanoylpiperazin-1-yl)sulfonyl)indolin-2-one] displayed a melting point of 130 to 135 °C.
Still for that read-out and setting: the figure for `O=C1Nc2ccc(S(=O)(=O)N3CCN(C(=O)c4cccc(Cl)c4)CC3)cc2C1=C1CCCC1` (as salt: hydrochloride) [9e, 5-((4-(3-Chlorobenzoyl)piperazin-1-yl)sulfonyl)-3-cyclopentylideneindolin-2-one] is 133 to 138 °C.
On to `C=CC(=O)N1CCC[C@@H](n2nc(-c3ccc(Oc4ccccc4)cc3)c3c(N)ncnc32)C1` [ibrutinib, Ibrutinib, reference compound], for which the IC50 in [2] came out at 23 ± 3 µM; in data set [3], 28 µM; in [4] it was 0.3 µM; in [5] it was 5 ± 1 µM; in data set [6], 29 ± 1 µM; in [7] it was 30 ± 1 µM. For the same compound, the IC50 worked out at 27 ± 3 µM in data set [8], 30 ± 1 µM in data set [9] and 4 ± 1 µM in data set [10].
In turn, `O=C1Nc2ccc(S(=O)(=O)N3CCN(C(=O)c4cccc(F)c4)CC3)cc2C1=C1CCCC1` (as salt: hydrochloride) [9g, 3-Cyclopentylidene-5-((4-(3-fluorobenzoyl)piperazin-1-yl)sulfonyl)indolin-2-one] gave a melting point of 132 to 135 °C.
On the same count and under the same terms, under `O=C1Nc2ccc(S(=O)(=O)N3CCN(C(=O)c4cccc(Br)c4)CC3)cc2C1=C1CCCC1` (as salt: hydrochloride) [9f, 5-((4-(3-Bromobenzoyl)piperazin-1-yl)sulfonyl)-3-cyclopentylideneindolin-2-one] stands 130 to 135 °C.
Consider `O=C1Nc2ccc(S(=O)(=O)N3CCN(C(=O)C4CC4)CC3)cc2C1=C1CCCC1` [9c, 3-Cyclopentylidene-5-((4-(cyclopropanecarbonyl)piperazin-1-yl)sulfonyl)indolin-2-one], for which the IC50 in data set [1] was greater than 50 µM; in data set [2], greater than 50 µM; in [3], greater than 50 µM; in data set [4], greater than 50 µM; in data set [5], 50 µM; in data set [6], greater than 50 µM. Also, the IC50 in [7], in data set [8], in data set [9] and in data set [10] was greater than 50 µM throughout. Besides, in [4], the “activity in RAMOS cells” value was “did not show any activity”.
Turning to `O=C1Nc2ccc(S(=O)(=O)N3CCN(C(=O)c4cccc(F)c4)CC3)cc2C1=C1CCCC1` [9g, 3-Cyclopentylidene-5-((4-(3-fluorobenzoyl)piperazin-1-yl)sulfonyl)indolin-2-one], the IC50 in [1] is greater than 50 µM; in [2] it was greater than 50 µM; in data set [3], greater than 50 µM; in [4], 2.09 ± 0.47 µM; in data set [5], greater than 50 µM; in [6], greater than 50 µM. Also, the concentration for half-maximal inhibition (IC50) in [7] is greater than 50 µM; in data set [8], greater than 50 µM; in [9], greater than 50 µM; in data set [10], 46.5 ± 5.81 µM. Moreover, the “activity in RAMOS cells” value in data set [4] is “selective cytotoxicity; also recorded: showed activity; also recorded: good anticancer activity in the micromole range”.
`O=C1Nc2ccc(S(=O)(=O)N3CCN(C(=O)c4cccnc4)CC3)cc2C1=C1CCCC1` [9i, 3-Cyclopentylidene-5-((4-nicotinoylpiperazin-1-yl)sulfonyl)indolin-2-one]: the IC50 in [1], in data set [2], in data set [3], in data set [4], in data set [5] and in [6] was greater than 50 µM in each case. In addition, the IC50 in data set [7], in data set [8], in data set [9] and in data set [10] was greater than 50 µM each time. The “activity in RAMOS cells” value in data set [4] is listed as “no activity”.
`CC(C)C(=O)N1CCN(S(=O)(=O)c2ccc3c(c2)C(=C2CCCC2)C(=O)N3)CC1` [9a, 3-Cyclopentylidene-5-((4-isobutyrylpiperazin-1-yl)sulfonyl)indolin-2-one]: the melting point fell in the range of 165 to 171 °C. This compound gave an IC50 in data set [1] greater than 50 µM. The IC50 in [2] is greater than 50 µM. Besides, the IC50 in data set [3] was greater than 50 µM. Also, in data set [4], the “activity in RAMOS cells” value is recorded as “no activity” and the IC50 was greater than 50 µM. The compound also gave an IC50 in data set [5] greater than 50 µM. The same compound gave a concentration for half-maximal inhibition (IC50) in data set [6] greater than 50 µM. For the same compound, the 50% inhibitory concentration (IC50) in [7] is greater than 50 µM. Besides, the IC50 in data set [8] was greater than 50 µM. This compound also yielded a 50% inhibitory concentration (IC50) in data set [9] greater than 50 µM. This compound yielded an IC50 in data set [10] greater than 50 µM.
`O=C1Nc2ccc(S(=O)(=O)N3CCN(C(=O)C4CCCCC4)CC3)cc2C1=C1CCCC1` (as salt: hydrochloride) [9b, 5-((4-(Cyclohexanecarbonyl)piperazin-1-yl)sulfonyl)-3-cyclopentylideneindolin-2-one]: the melting point fell in the range of 140 to 145 °C.
In turn, `O=C1Nc2ccc(S(=O)(=O)N3CCN(C(=O)c4cccnc4)CC3)cc2C1=C1CCCC1` (as salt: hydrochloride) [9i, 3-Cyclopentylidene-5-((4-nicotinoylpiperazin-1-yl)sulfonyl)indolin-2-one] showed a melting point of 195 to 200 °C.
`O=C1Nc2ccc(S(=O)(=O)N3CCN(C(=O)c4cccc(C(F)(F)F)c4)CC3)cc2C1=C1CCCC1` (as salt: hydrochloride) [9j, 3-Cyclopentylidene-5-((4-(3-(trifluoromethyl)benzoyl)piperazin-1-yl)sulfonyl)indolin-2-one] yielded a melting point of 139 to 143 °C.

A word on the melting point: it is the temperature of the solid-liquid transition. As usually defined, the IC50 is the concentration at which inhibition is half-maximal. High values mean weaker potency, low ones greater potency.
